Measured values as given in patent US20130303532A1, “IMIDAZOPYRAZINES FOR USE AS MPS-1 AND TKK INHIBITORS IN THE TREATMENT HYPERPROLIFERATIVE DISORDERS” (BAYER INTELLECTUAL PROPERTY GmbH, priority 2010, published 2013).
Where two headings read alike, the source gives them in different places.

Molecular target: T1, human kinase Mps-1 (Homo sapiens, UniProt P33981)
T1 construct: N-terminally GST-tagged human full length recombinant Mps-1 kinase; GST (N); purchased Invitrogen, Karslruhe, Germany PV4071
T1 sequence (P33981 1-857): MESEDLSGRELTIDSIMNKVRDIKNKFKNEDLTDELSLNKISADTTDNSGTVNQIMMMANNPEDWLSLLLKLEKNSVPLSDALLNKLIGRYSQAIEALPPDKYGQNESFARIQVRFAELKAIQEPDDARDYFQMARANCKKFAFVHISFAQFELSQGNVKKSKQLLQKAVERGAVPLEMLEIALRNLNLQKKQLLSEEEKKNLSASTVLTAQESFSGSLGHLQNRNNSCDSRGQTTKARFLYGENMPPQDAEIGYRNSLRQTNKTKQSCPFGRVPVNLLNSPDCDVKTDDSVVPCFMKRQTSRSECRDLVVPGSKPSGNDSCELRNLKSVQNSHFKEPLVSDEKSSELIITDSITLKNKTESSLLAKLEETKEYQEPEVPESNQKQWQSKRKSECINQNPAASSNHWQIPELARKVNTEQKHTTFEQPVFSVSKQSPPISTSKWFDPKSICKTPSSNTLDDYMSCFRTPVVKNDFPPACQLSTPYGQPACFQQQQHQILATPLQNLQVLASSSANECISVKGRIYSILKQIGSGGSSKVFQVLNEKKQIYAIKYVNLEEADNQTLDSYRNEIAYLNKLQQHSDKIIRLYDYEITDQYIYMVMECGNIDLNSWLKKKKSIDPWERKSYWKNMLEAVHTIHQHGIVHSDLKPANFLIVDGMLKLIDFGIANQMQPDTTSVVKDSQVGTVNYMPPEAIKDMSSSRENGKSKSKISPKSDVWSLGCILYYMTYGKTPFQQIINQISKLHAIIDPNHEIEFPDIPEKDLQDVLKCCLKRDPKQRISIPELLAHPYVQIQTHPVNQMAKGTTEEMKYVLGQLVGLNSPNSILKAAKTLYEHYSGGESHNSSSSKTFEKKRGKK
Test: Mps-1 kinase assay (TR-FRET)
Assay type: biochemical
Settings: N-terminally GST-tagged human full length recombinant Mps-1, 10 μM ATP, 1 μM biotinylated peptide substrate, 60 min at 22° C.

| IC50 (read-out: Mps1 IC50) | SMILES | IC50 (Mps1 IC50 [nM]) |
| --- | --- | --- |
| 1970 nM | O=C(NC1CC1)c1ccc(-c2cnc3c(NCCCN4CCCC4=O)nccn23)cc1Cl [Example 7-35, 2-chloro-N-cyclopropyl-4-(8-{[3-(2-oxopyrrolidin-1-yl)propyl]amino}imidazo[1,2-a]pyrazin-3-yl)benzamide] |  |
|  | Cc1cc(-c2cnc3c(NCc4ccn[nH]4)nccn23)ccc1C(=O)NC1CC1 [Example 5-3, N-cyclopropyl-2-methyl-4-{8-[(1H-pyrazol-5-ylmethyl)amino]imi-dazo[1,2-a]pyrazin-3-yl}benzamide] | 86.7 nM |
|  | CC(=O)NCCNc1nccn2c(-c3ccc(C(=O)NC4CC4)c(C)c3)cnc12 [Example 7-106] | 1470 nM |
| 92.7 nM | CC(C)(O)CNc1nccn2c(-c3ccc(C(=O)NC4CC4)cc3)cnc12 [Example 3-2, N-cyclopropyl-4-{8-[(2-hydroxy-2-methylpropyl)amino]imidazo[1,2-a]pyrazin-3-yl}benzamide] |  |
|  | Cc1cc(-c2cnc3c(NCC(O)C(F)(F)F)nccn23)ccc1C(=O)NC1CC1 (stereo not shown) [Example 7-113, N-cyclopropyl-2-methyl-4-{8-[(3,3,3-trifluoro-2-hydroxypropyl)amino]imi-dazo[1,2-a]pyrazin-3-yl}benzamide] | 36.7 nM |
|  | O=C(NC1CC1)c1ccc(-c2cnc3c(NCCCc4ccccc4)nccn23)cc1 [Example 7-24, N-cyclopropyl-4-{8-[(3-phenylpropyl)amino]imi-dazo[1,2-a]pyrazin-3-yl}benzamide] | 90.1 nM |
| 961 nM | CC(=O)NCCNc1nccn2c(-c3ccc(C(=O)NC4CC4)cc3)cnc12 [Example 7-16, 4-(8-{[2-(acetylamino)ethyl]ami-no}imidazo[1,2-a]pyrazin-3-yl)-N-cyclopropylbenzamide] |  |
|  | CC(C)CNc1nccn2c(-c3ccc(C(=O)NC4CC4)cc3F)cnc12 [Example 1-3, N-cyclopropyl-3-fluoro-4-{8-[(2-methylpropyl)amino]imi-dazo[1,2-a]pyrazin-3-yl}benzamide] | 9 nM |
|  | Cc1cccc(CNc2nccn3c(-c4ccc(C(=O)NC5CC5)cc4)cnc23)c1 [Example 7-29, N-cyclopropyl-4-{8-[(3-methylbenzyl)amino]imi-dazo[1,2-a]pyrazin-3-yl}benzamide] | 100 nM |
|  | CC(C)CNc1nccn2c(-c3ccc(C(=O)NC4CC4)c(F)c3)cnc12 [Example 1-4, N-cyclopropyl-2-fluoro-4-{8-[(2-methylpropyl)amino]imi-dazo[1,2-a]pyrazin-3-yl}benzamide] | 34 nM |
| 52.4 nM | Cc1cc(C(=O)NC2CC2)ccc1-c1cnc2c(NCC(C)C)nccn12 [Example 1-1, N-cyclopropyl-3-methyl-4-{8-[(2-methylpropyl)amino]imidazo[1,2-a]pyrazin-3-yl}benzamide] |  |
| 1190 nM | O=C(NC1CC1)c1ccc(-c2cnc3c(NCc4ccccn4)nccn23)cc1Cl [Example 7-47, 2-chloro-N-cyclopropyl-4-{8-[(pyridin-2-ylmethyl)amino]imidazo[1,2-a]pyrazin-3-yl}benzamide] |  |
|  | CCOC(C)CNc1nccn2c(-c3ccc(C(=O)NC4CC4)c(C)c3)cnc12 (stereo not shown) [Example 7-121, N-cyclopropyl-4-{8-[(2-ethoxypropyl)amino]imi-dazo[1,2-a]pyrazin-3-yl}-2-methylbenzamide] | 154 nM |
|  | O=C(NC1CC1)c1ccc(-c2cnc3c(NCc4ccn[nH]4)nccn23)cc1 [Example 4-4, N-cyclopropyl-4-{8-[(1H-pyrazol-5-ylmethyl)amino]imi-dazo[1,2-a]pyrazin-3-yl}benzamide] | 69.8 nM |
|  | O=C(NC1CC1)c1ccc(-c2cnc3c(NCCCN4CCOCC4)nccn23)cc1O [Example 7-71, N-cyclopropyl-2-hydroxy-4-(8-{[3-(morpholin-4-yl)propyl]amino}imi-dazo[1,2-a]pyrazin-3-yl)benzamide] | 304 nM |
|  | O=C(NC1CC1)c1ccc(-c2cnc3c(NCC4CCCCO4)nccn23)cc1O (stereo not shown) [Example 7-89, N-cyclopropyl-2-hydroxy-4-{8-[(tetrahydro-2H-pyran-2-ylmethyl)amino]imi-dazo[1,2-a]pyrazin-3-yl}benzamide] | 247 nM |
| 63.1 nM | CCNc1nccn2c(-c3ccc(C(=O)NC4CC4)c(O)c3)cnc12 [Example 7-77, N-cyclopropyl-4-[8-(ethylamino)imidazo[1,2-a]pyrazin-3-yl]-2-hydroxybenzamide] |  |

| IC50 (read-out: Mps1 IC50) | SMILES | IC50 (Mps1 IC50 [nM]) |
| --- | --- | --- |
|  | Cc1cc(-c2cnc3c(NCc4cnn(C)c4)nccn23)ccc1C(=O)NC1CC1 [Example 7-120, N-cyclopropyl-2-methyl-4-(8-{[(1-methyl-1H-pyrazol-4-yl)methyl]amino}imi-dazo[1,2-a]pyrazin-3-yl)benzamide] | 93.4 nM |
|  | COCCCNc1nccn2c(-c3ccc(C(=O)NC4CC4)c(Cl)c3)cnc12 [Example 7-58, 2-chloro-N-cyclopropyl-4-{8-[(3-methoxypropyl)amino]imi-dazo[1,2-a]pyrazin-3-yl}benzamide] | 485 nM |
|  | Cc1cc(-c2cnc3c(NC[C@@H](O)CO)nccn23)ccc1C(=O)NC1CC1 [Example 7-125, N-cyclopropyl-4-{8-[(2,3-dihydroxypropyl)amino]imi-dazo[1,2-a]pyrazin-3-yl}-2-methylbenzamide] | 361 nM |
|  | O=C(NC1CC1)c1ccc(-c2cnc3c(NCCCO)nccn23)cc1O [Example 7-78, N-cyclopropyl-2-hydroxy-4-{8-[(3-hydroxypropyl)amino]imi-dazo[1,2-a]pyrazin-3-yl}benzamide] | 93.1 nM |
|  | CC(O)CNc1nccn2c(-c3ccc(C(=O)NC4CC4)c(O)c3)cnc12 (stereo not shown) [Example 7-84, N-cyclopropyl-2-hydroxy-4-{8-[(2-hydroxypropyl)amino]imi-dazo[1,2-a]pyrazin-3-yl}benzamide] | 96.9 nM |
|  | CC(C)CNc1nccn2c(-c3ccc(C(=O)NC4CC4)c(Cl)c3)cnc12 [Example 7-51, 2-chloro-N-cyclopropyl-4-{8-[(2-methylpropyl)amino]imi-dazo[1,2-a]pyrazin-3-yl}benzamide] | 15.7 nM |
|  | Cc1cc(-c2cnc3c(NCc4cccnc4)nccn23)ccc1C(=O)NC1CC1 [Example 7-108, N-cyclopropyl-2-methyl-4-{8-[(pyridin-3-ylmethyl)amino]imi-dazo[1,2-a]pyrazin-3-yl}benzamide] | 123 nM |
|  | O=C(NC1CC1)c1ccc(-c2cnc3c(NCC(F)F)nccn23)cc1Cl [Example 7-59, 2-chloro-N-cyclopropyl-4-{8-[(2,2-difluoroethyl)amino]imi-dazo[1,2-a]pyrazin-3-yl}benzamide] | 239 nM |
|  | COCCNc1nccn2c(-c3ccc(C(=O)NC4CC4)c(C)c3)cnc12 [Example 7-96, N-cyclopropyl-4-{8-[(2-methoxyethyl)amino]imi-dazo[1,2-a]pyrazin-3-yl}-2-methylbenzamide] | 229 nM |
| 2500 nM | NCCCNc1nccn2c(-c3ccc(C(=O)NC4CC4)c(Cl)c3)cnc12 [Example 3-3, 4-{8-[(3-Aminopropyl)amino]imidazo[1,2-a]pyrazin-3-yl}-2-chloro-N-cyclopropylbenzamide] |  |
|  | Cn1cc(CNc2nccn3c(-c4ccc(C(=O)NC5CC5)c(Cl)c4)cnc23)cn1 [Example 7-62, 2-chloro-N-cyclopropyl-4-(8-{[(1-methyl-1H-pyrazol-4-yl)methyl]amino}imi-dazo[1,2-a]pyrazin-3-yl)benzamide] | 308 nM |
| 42.3 nM | O=C(NC1CC1)c1ccc(-c2cnc3c(NCCc4cccs4)nccn23)cc1 [Example 7-21, N-cyclopropyl-4-(8-{[2-(thiophen-2-yl)ethyl]ami-no}imidazo[1,2-a]pyrazin-3-yl)benzamide] |  |
| 1750 nM | CC(=O)NCCNc1nccn2c(-c3ccc(C(=O)NC4CC4)c(Cl)c3)cnc12 [Example 7-45, 4-(8-{[2-(acetylamino)ethyl]ami-no)imidazo[1,2-a]pyrazin-3-yl)-2-chloro-N-cyclopropylbenzamide] |  |
| 18.5 nM | CCCCNc1nccn2c(-c3ccc(C(=O)NC4CC4)c(C)c3)cnc12 [Example 7-105, 4-[8-(butylamino)imidazo[1,2-a]pyrazin-3-yl]-N-cyclopropyl-2-methylbenzamide] |  |
|  | O=C(NC1CC1)c1ccc(-c2cnc3c(NCc4ccc(F)cc4)nccn23)cc1 [Example 7-31, N-cyclopropyl-4-{8-[(4-fluorobenzyl)amino]imi-dazo[1,2-a]pyrazin-3-yl}benzamide] | 17.4 nM |
|  | Cc1cc(-c2cnc3c(NCC4CCCO4)nccn23)ccc1C(=O)NC1CC1 (stereo not shown) [Example 7-94, N-cyclopropyl-2-methyl-4-{8-[(tetrahydrofuran-2-ylmethyl)amino]imi-dazo[1,2-a]pyrazin-3-yl}benzamide] | 80.8 nM |
|  | O=C(NC1CC1)c1ccc(-c2cnc3c(NCCCN4CCOCC4)nccn23)cc1 [Example 7-5, N-cyclopropyl-4-(8-{[3-(morpholin-4-yl)propyl]amino}imi-dazo[1,2-a]pyrazin-3-yl)benzamide] | 328 nM |
